Molecules are shown by their SMILES. pIC50: −log10 of the molar value.

From PMC9822553 (iScience, 2023) come the findings set out here.

Common to all, as to format: cell-based
Test [1] concerns SARS-CoV-2 variant G614.
Test [2] concerns SARS-CoV-2 variant G614. The source holds these as a separate data set.
Test [3] deals with SARS-CoV-2 strain FFM3. Put plainly: microbe, parasite or virus in culture. To be noted: Severe acute respiratory syndrome coronavirus 2, read-out: IC50 concentration.

`C[C@H](NC(=O)C(=O)Nc1ccccc1C(C)(C)C)C(=O)N[C@@H](CC(=O)O)C(=O)COc1c(F)c(F)cc(F)c1F` [emricasan]: in test [1], the “effect on caspase 3/7 activity” value is “suppressing caspase 3/7 activity”. In addition, the “effect on SARS-CoV-2 replication and CPE formation” value in test [2] was “did not interfere with SARS-CoV-2 replication and CPE formation”.

`CCC(CC)COC(=O)[C@H](C)N[P@](=O)(OC[C@H]1O[C@@](C#N)(c2ccc3c(N)ncnn23)[C@H](O)[C@@H]1O)Oc1ccccc1` [remdesivir]: the pIC50 in test [3] was 6.30.
